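Cultured in 96-well plates, cells were exposed to test compound for 48 hours across five concentrations. The concentration for 50% growth inhibition is given as GI50.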 The source made the active and inactive calls. Rule as the data show it: active = GI50 up to about 1.1 µM and inactive = higher.
Columns and labels:
Assay in all cases: NCI-60 cell line screen, 48 h
A498 = tested on: A498
CAKI-1 = tested on: CAKI-1
DU-145 = tested on: DU-145
Hs-578T = tested on: Hs-578T
LOX IMVI = tested on: LOX IMVI
MDA-MB-231 = tested on: MDA-MB-231
MDA-MB-435 = tested on: MDA-MB-435
MDA-N = tested on: MDA-N
NCI/ADR-RES = tested on: NCI/ADR-RES
OVCAR-5 = tested on: OVCAR-5
OVCAR-8 = tested on: OVCAR-8
PC-3 = tested on: PC-3
SF-295 = tested on: SF-295
SK-MEL-5 = tested on: SK-MEL-5
U-251 = tested on: U-251
CCRF-CEM = tested on: CCRF-CEM

Measured: GI50

O=C1c2ccccc2C(=O)c2c(Nc3cc4c5c(ccc6c7ccc8c9c(cc(Nc%10cccc%11c%10C(=O)c%10ccccc%10C%11=O)c(c3c56)c97)-c3ccccc3C8=O)C(=O)c3ccccc3-4)cccc21
inactive: A498 26.1 µM | CAKI-1 67 µM | DU-145 > 100 µM | Hs-578T 18.1 µM | LOX IMVI 72.1 µM | MDA-MB-231 31.6 µM | MDA-MB-435 41.1 µM | MDA-N > 100 µM | NCI/ADR-RES 49.1 µM | OVCAR-5 > 100 µM | OVCAR-8 25 µM | PC-3 70.6 µM | SF-295 44 µM | SK-MEL-5 > 100 µM | U-251 21.1 µM

C=C1CC(Cn2cc(C)c(=O)[nH]c2=O)(c2ccc(-c3ccccc3)cc2)OC1=O (stereo not drawn)
active: CCRF-CEM 0.379 µM | LOX IMVI 0.889 µM | SK-MEL-5 1.07 µM
inactive: A498 3.34 µM | CAKI-1 1.55 µM | DU-145 2.35 µM | Hs-578T 6.55 µM | MDA-MB-231 2.22 µM | MDA-MB-435 1.8 µM | MDA-N 1.33 µM | NCI/ADR-RES 1.33 µM | OVCAR-5 9.46 µM | OVCAR-8 1.95 µM | PC-3 2.01 µM | SF-295 8.85 µM | U-251 10.6 µM

NS(=O)(=O)c1ccc(NNc2c3ccccc3nc3c(C(=O)Nc4ccc(S(=O)(=O)Nc5ncccn5)cc4)cccc23)cc1
inactive: CAKI-1 > 25 µM | CCRF-CEM > 25 µM | DU-145 > 25 µM | Hs-578T > 25 µM | LOX IMVI > 25 µM | MDA-MB-231 > 25 µM | MDA-MB-435 > 25 µM | MDA-N > 25 µM | NCI/ADR-RES > 25 µM | OVCAR-5 > 25 µM | OVCAR-8 > 25 µM | PC-3 > 25 µM | SF-295 > 25 µM | SK-MEL-5 > 25 µM | U-251 > 25 µM

CO[C@H]1C=CO[C@@]2(C)Oc3c(C)c(O)c4c(O)c(c(CN5CCN(C)CC5)c(O)c4c3C2=O)NC(=O)/C(C)=C\C=C[C@H](C)[C@H](O)C(C)[C@@H](O)C(C)[C@H](OC(C)=O)[C@@H]1C (stereo partly drawn)
inactive: A498 > 100 µM | CAKI-1 > 77.1 µM | CCRF-CEM 4.39 µM | DU-145 34.8 µM | Hs-578T > 100 µM | LOX IMVI 14.3 µM | MDA-MB-231 34.4 µM | MDA-MB-435 27.5 µM | MDA-N 44.3 µM | NCI/ADR-RES > 100 µM | OVCAR-5 > 100 µM | OVCAR-8 20 µM | PC-3 17 µM | SF-295 > 100 µM | SK-MEL-5 24.3 µM | U-251 32.7 µM

COc1ccccc1CNCc1nc2ccccc2[nH]1
inactive: A498 > 100 µM | CAKI-1 > 100 µM | CCRF-CEM > 100 µM | DU-145 > 100 µM | Hs-578T > 100 µM | LOX IMVI > 100 µM | MDA-MB-231 > 100 µM | MDA-MB-435 > 100 µM | MDA-N > 100 µM | NCI/ADR-RES > 100 µM | OVCAR-5 > 100 µM | OVCAR-8 > 100 µM | PC-3 > 100 µM | SF-295 > 100 µM | SK-MEL-5 48.5 µM | U-251 > 100 µM

C=C1CC2CCCC12C=O (stereo not drawn)
inactive: CAKI-1 > 10 µM | CCRF-CEM > 10 µM | DU-145 > 10 µM | Hs-578T > 10 µM | LOX IMVI > 10 µM | MDA-MB-231 > 10 µM | MDA-MB-435 > 10 µM | MDA-N > 10 µM | NCI/ADR-RES > 10 µM | OVCAR-8 > 10 µM | PC-3 > 10 µM | SF-295 > 10 µM | SK-MEL-5 > 10 µM | U-251 > 10 µM

C=C(Br)CN(C#N)CC(=C)Br
inactive: A498 > 100 µM | CAKI-1 > 100 µM | CCRF-CEM > 100 µM | DU-145 > 100 µM | Hs-578T > 100 µM | LOX IMVI > 100 µM | MDA-MB-231 > 100 µM | MDA-MB-435 > 100 µM | MDA-N > 100 µM | NCI/ADR-RES > 100 µM | OVCAR-5 > 100 µM | OVCAR-8 > 100 µM | PC-3 > 100 µM | SF-295 > 100 µM | SK-MEL-5 > 100 µM | U-251 > 100 µM

Oc1ccc2ccccc2c1Cc1c(O)ccc2ccccc12
inactive: A498 18.2 µM | CAKI-1 17.1 µM | CCRF-CEM 19.3 µM | DU-145 17.9 µM | Hs-578T 14.2 µM | LOX IMVI 15.2 µM | MDA-MB-231 18.2 µM | MDA-MB-435 11 µM | MDA-N 11.6 µM | NCI/ADR-RES 15.2 µM | OVCAR-5 15.6 µM | OVCAR-8 15.6 µM | PC-3 17.5 µM | SF-295 16.7 µM | SK-MEL-5 16.1 µM | U-251 15.4 µM

Brc1ccc2c([C@H]3CN[C@@H](c4c[nH]c5cc(Br)ccc45)CN3)c[nH]c2c1
inactive: A498 1.87 µM | CAKI-1 2.94 µM | CCRF-CEM 2.84 µM | DU-145 2.96 µM | Hs-578T 7.62 µM | LOX IMVI 1.83 µM | MDA-MB-231 1.8 µM | MDA-MB-435 1.72 µM | MDA-N 1.66 µM | NCI/ADR-RES 4.9 µM | OVCAR-5 4.95 µM | OVCAR-8 1.84 µM | PC-3 3.9 µM | SF-295 7.1 µM | SK-MEL-5 4.91 µM | U-251 2 µM

CCCC1CCC(=C2C(=O)CCC2=O)O1 (stereo not drawn)
inactive: CAKI-1 > 100 µM | CCRF-CEM > 100 µM | DU-145 > 100 µM | Hs-578T > 100 µM | LOX IMVI > 100 µM | MDA-MB-231 > 100 µM | MDA-MB-435 > 100 µM | MDA-N > 100 µM | NCI/ADR-RES > 100 µM | OVCAR-5 > 100 µM | OVCAR-8 > 100 µM | PC-3 > 100 µM | SF-295 > 100 µM | U-251 > 100 µM

Cn1c(SCc2c[nH]c3ccccc23)nnc1-c1ccc(Cl)cc1Cl
inactive: A498 16.3 µM | CAKI-1 20 µM | CCRF-CEM 12.8 µM | DU-145 17.6 µM | Hs-578T 19.7 µM | LOX IMVI 5.18 µM | MDA-MB-231 10.5 µM | MDA-MB-435 3 µM | MDA-N 4.44 µM | NCI/ADR-RES 6.07 µM | OVCAR-5 22.8 µM | OVCAR-8 21.2 µM | PC-3 12.1 µM | SF-295 8.3 µM | SK-MEL-5 14.5 µM | U-251 15.1 µM

C[O+]=C1C=CC(=C2SC(c3ccccc3)(c3ccccc3)c3ccccc32)C=C1.[O-][Cl+3]([O-])([O-])[O-]
inactive: A498 24 µM | CAKI-1 30.9 µM | CCRF-CEM 26.4 µM | DU-145 26.2 µM | Hs-578T 18.6 µM | LOX IMVI 18 µM | MDA-MB-231 18.5 µM | MDA-MB-435 18.6 µM | MDA-N 21.1 µM | NCI/ADR-RES 30.1 µM | OVCAR-5 19.5 µM | OVCAR-8 32.1 µM | PC-3 20.9 µM | SF-295 22.1 µM | SK-MEL-5 16.6 µM | U-251 22.6 µM

NCCC1([N+](=O)[O-])C=CN=CC1 (stereo not drawn)
inactive: A498 > 100 µM | CAKI-1 > 100 µM | CCRF-CEM > 100 µM | DU-145 > 100 µM | Hs-578T > 100 µM | MDA-MB-231 > 100 µM | MDA-MB-435 > 100 µM | MDA-N > 100 µM | NCI/ADR-RES > 100 µM | OVCAR-5 > 100 µM | OVCAR-8 > 100 µM | PC-3 > 100 µM | SF-295 > 100 µM | SK-MEL-5 > 100 µM | U-251 > 100 µM

COc1ccc(OC)c(C2CCc3nc4nc(N)nc(N)c4cc3C2)c1 (stereo not drawn)
inactive: A498 12.7 µM | CAKI-1 20.8 µM | CCRF-CEM 2.96 µM | DU-145 5.66 µM | Hs-578T 3.75 µM | LOX IMVI 3.12 µM | MDA-MB-231 2.35 µM | MDA-MB-435 2.04 µM | MDA-N 2.13 µM | NCI/ADR-RES > 100 µM | OVCAR-5 9.35 µM | OVCAR-8 2.47 µM | PC-3 3.56 µM | SF-295 11.7 µM | SK-MEL-5 5.05 µM | U-251 1.76 µM

CC(NNC(=O)c1cc[n+]([BH2-]C#N)cc1)c1cccc(F)c1 (stereo not drawn)
inactive: A498 > 100 µM | CAKI-1 > 100 µM | CCRF-CEM > 100 µM | DU-145 > 100 µM | Hs-578T > 100 µM | LOX IMVI > 100 µM | MDA-MB-231 > 100 µM | MDA-MB-435 > 100 µM | MDA-N > 100 µM | NCI/ADR-RES > 100 µM | OVCAR-5 > 100 µM | OVCAR-8 > 100 µM | PC-3 > 100 µM | SF-295 > 100 µM | SK-MEL-5 94.2 µM | U-251 > 100 µM

CCC(C)[C@@H](NC1=C(Cl)C(=O)c2c(O)ccc(O)c2C1=O)C(=O)OC (stereo partly drawn)
active: CCRF-CEM 0.579 µM
inactive: CAKI-1 6.46 µM | DU-145 5.19 µM | Hs-578T > 10 µM | LOX IMVI 3.21 µM | MDA-MB-231 2.52 µM | MDA-MB-435 3.55 µM | MDA-N 3.56 µM | NCI/ADR-RES 2.52 µM | OVCAR-5 5.12 µM | OVCAR-8 3.15 µM | PC-3 3.86 µM | SF-295 4.92 µM | SK-MEL-5 2.02 µM | U-251 3.78 µM

CC(NC(=O)C(N)CC(=O)O)NC(=O)C1CCC1 (stereo not drawn)
inactive: A498 > 100 µM | CAKI-1 > 100 µM | CCRF-CEM > 100 µM | DU-145 > 100 µM | Hs-578T > 100 µM | LOX IMVI > 100 µM | MDA-MB-231 > 100 µM | MDA-MB-435 > 100 µM | MDA-N > 100 µM | NCI/ADR-RES > 100 µM | OVCAR-5 > 100 µM | OVCAR-8 > 100 µM | PC-3 > 100 µM | SK-MEL-5 > 100 µM | U-251 > 100 µM
